Values joined by “and” are separate entries in the source; they are usually repeats but may differ in a detail not shown here. Equal values may be shown once. “Also recorded” adds a separate entry of the source. Read-outs that look alike come from different tables or passages of the source.
How the values were obtained:
human SUMO1 [1] = molecular target: T1, human SUMO1 (Homo sapiens, UniProt P63165); assay: Surface plasmon resonance (SPR) primary screen; format: binding;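 further: recombinant human SUMO1 amine-coupled to a sensor chip, blank activated and quenched reference flow cell, flavonoids injected 2 min then 1 min dissociation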
T1 construct: encoding amino acids 1–97 of mature human SUMO1; host or cells: E. coli BL21 Rosetta (DE3)
T1 sequence (P63165 1-97): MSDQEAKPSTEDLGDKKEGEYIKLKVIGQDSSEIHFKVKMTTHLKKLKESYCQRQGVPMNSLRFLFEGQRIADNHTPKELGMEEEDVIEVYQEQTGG

human SUMO1 [2] = molecular target: T1, human SUMO1; assay: SPR secondary screen / dose-dependent binding; design: key to SPR Screens 2°: ✓: dose-dependent saturation kinetics; ×: no indication of saturation kinetics
human SUMO1 [3] = molecular target: T1, human SUMO1; assay: Differential scanning fluorimetry (DSF) thermal shift; format: binding
SUMO1^Δ15 = molecular target: T2, SUMO1^Δ15 (Homo sapiens, UniProt P63165); assay: as above; format: binding; conditions: 2 μM SUMO1^Δ15, fisetin 20 to 200 μM
T2 construct: encoding amino acids 1–97 of mature human SUMO1; made in house; host or cells: E. coli BL21 Rosetta (DE3)
T2 sequence (P63165 with tags, fused parts or gaps limits assumed): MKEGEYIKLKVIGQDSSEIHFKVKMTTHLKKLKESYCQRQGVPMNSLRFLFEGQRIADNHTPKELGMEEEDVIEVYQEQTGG
Procedure: Here we used a variant of the human SUMO1 called SUMO1^Δ15 in which the N-terminal 15 amino acids of SUMO1 are removed. The first 15 amino acids of human SUMO1 are weakly conserved and reported to be unstructured, and so therefore might contribute to its instability. […] We next compared SUMO1^Δ15 directly with wild-type SUMO1.
Fluorescence-based thermal shift assays known as differential scanning fluorimetry (DSF) were performed following the general protocol described in [28]. In short, 20 μl reactions were prepared with 2 μM human SUMO1 or SUMO1^Δ15 protein exchanged in DSF buffer (50 mM Tris-Cl pH 8.0, 150 mM NaCl, 10% glycerol), 10X SYPRO Orange (ThermoFisher Scientific, Waltham, MA), and 0.3 μl of DMSO control or flavonoid dissolved in DMSO. PCR plates (white non-skirted, 96-well) were sealed with optical film, centrifuged, and incubated at 4 °C for 30 min prior to analysis. Thermal scanning (20°C for 30 s, followed by ramping from 20 °C to 90 °C at 0.5 °C/15 s) was performed using a real-time PCR setup (CFX384 Touch, Biorad, Hercules, CA) with filter sets for measurement of relative fluorescence units (RFU) at 0.5°C intervals. Tm was calculated from the maxima of the first derivative of RFU/temperature using GraphPad Prism7. For the HSF1 denaturation experiment, recombinantly expressed and affinity purified human HSF1 was exchanged in DSF buffer. […]

bovine ubiquitin = molecular target: T3, bovine ubiquitin (Bos taurus, UniProt P0CG53); assay: Fluorescence quenching of fisetin; format: binding; conditions: 0.5 μM fisetin, corrected for dilution
T3 construct: native bovine ubiquitin (U6253); purchased Sigma-Aldrich U6253
Procedure: (§1) The spectrum between 390–600 nm was measured with a PerkinElmer LS-55 fluorescence spectrometer. […] Excitation and emission slit wavelengths were 5 and 10 nm, respectively, with scan speed of 500 nm/min. […] Values were corrected for dilution as follows: Relative fluorescence values were calculated by subtracting fluorescence quenching observed upon addition of buffer alone.

human SUMO1 [4] = molecular target: T1, human SUMO1; assay: Fluorescence quenching of fisetin; format: binding; conditions: 0.5 μM fisetin, emission 511.5 nm, corrected for dilution
Procedure: as §1

[5] = molecular target: T4, sumoylation of HSF1 by SUMO1 (Homo sapiens, UniProt P63165); assay: In vitro sumoylation (SUMOlink SUMO-1 Kit), Western blot; format: biochemical; conditions: 300 μM fisetin, 30°C for 3 hr
T4 construct: purchased Active Motif 40120; host or cells: HSF1 substrate made in house in E. coli BL21 Rosetta (DE3)
T4 sequence (P63165 1-97 limits assumed): as the sequence (P63165 1-97) above
Description: (§2) To this end, we performed in vitro sumoylation experiments in which the cellular sumoylation reaction was reconstituted using purified human SUMO1, E1 activating enzyme, E2 conjugating enzyme, and two putative protein substrates (human tumor suppressor p53 and human transcription factor HSF1). E1 activating enzyme functions by transferring active SUMO1 protein to the E2 conjugating enzyme Ubc9, which in turn attaches SUMO1 onto target protein substrates. Both p53 and HSF1 proteins are linked to sumoylation as well as to cancer pathways.
(§3) Proteins were separated by SDS-PAGE using 4–20% or 7.5% Mini-PROTEAN TGX Precast Protein Gels (Bio-Rad, Hercules, CA) followed by detection with Bio-Safe Coomassie Stain (Bio-Rad). For Western immunoblotting experiments, proteins in SDS-PAGE gels were transferred onto a PVDF membrane at 4°C using Mini Trans-Blot Cell (Bio-Rad), blocked with 5% nonfat milk for 1 hr at room T or overnight at 4°C and incubated with the following primary antibodies at indicated dilutions for 1 hr at room T: 1:10,000 HSF1 polyclonal antibody (Enzo Life Sciences ADI-SPA-901-F; Lausen, Switzerland), 1:4000 p53 rabbit antibody (SUMOlink SUMO-1 Kit), 1:5000 SUMO-1 rabbit antibody (SUMOlink SUMO-1 Kit). Secondary antibody incubation was performed for 1 hr at room T using 1:10,000 goat anti-rabbit IgG polyclonal antibody (Enzo Life Sciences, ADI-SAB-300). […]

[6] = molecular target: T5, sumoylation of tumor suppressor p53 by SUMO1 (Homo sapiens, UniProt P63165); assay: as above; format: biochemical; conditions: 300 μM fisetin, 30°C for 3 hr
T5 construct: purchased Active Motif 40120
T5 sequence (P63165 1-97 limits assumed): as the sequence (P63165 1-97) above
Description: as §2, §3

## O=c1c(O)c(-c2ccc(O)c(O)c2)oc2cc(O)ccc12 [Fisetin, 3,3',4',7-tetrahydroxyflavone]
Human SUMO1 [1]; 500 μM flavonoid in DMSO, cut-off of %RUmax of ~15
  SPR Screens 1°: ✓ (%RUmax with binding activity above cut-off)
Human SUMO1 [1]; 500 μM, %RUmax above threshold of ~15%
  interaction in SPR primary screen: interacted with SUMO1 in the primary screen
Human SUMO1 [1]; SPR primary screen, 500 μM flavonoid in DMSO, (Mean RU/RUmax)*100
  %RUmax: 18.9%
Human SUMO1 [2]; Fig 2A-H
  saturation binding in SPR secondary screen: exhibited binding that approached saturation
Human SUMO1 [2]; fisetin ~12 to 250 μM, Fig 2I, average of six replicates, read-out: Kd (SPR, extended range of concentrations)
  Kd: 228 µM and ~228 µM
Human SUMO1 [2]; five concentrations 31.25-500 μM
  SPR Screens 2°: ✓
Human SUMO1 [2]; one-site hyperbola fit, 31.25-500 μM flavonoid, Fig 2A-C, read-out: Kd (SPR secondary screen)
  Kd: 124 µM and ~124 µM
Human SUMO1 [2]; range over the two experiments, Fig 2A and 2I, read-out: estimated Kd ranging (SPR)
  Kd: 124 to 228 µM
Human SUMO1 [3]
  ΔTm at 300 µM: < 2 °C
Human SUMO1 [3]; 2 μM SUMO1, 300 μM flavonoid
  effect on DSF thermogram / thermal stability of SUMO1: cause unfolding of human SUMO1; also recorded: unfolding of the protein at ambient temperature
SUMO1^Δ15
  dose-dependent effect on DSF thermogram of SUMO1^Δ15: thermal destabilization
Bovine ubiquitin
  quenching of fisetin fluorescence by ubiquitin: only marginal quenching
Human SUMO1 [4]
  quenching of fisetin fluorescence by SUMO1: Saturable binding was observed
[5]
  sumoylation of HSF1 in vitro: failed to alter sumoylation
[6]
  sumoylation of p53 in vitro: no SUMO conjugates of p53 were detected; also recorded: completely inhibits sumoylation
